From patent publication US20080009418A1, “Selective Inhibitors” (Alchemia LTD., priority 2004, published 2008)

Key:
[1] = biological target: T1, Human melanin-concentrating hormone (MCH1) (Homo sapiens, UniProt Q99705); experiment: Radioligand binding, human melanin-concentrating hormone MCH1 membranes, FlashPlate, [125I]-S36057; details: compound at 10 μM; human MCH1 membranes
T1 construct: purchased Perkin Elmer Biosignal
Procedure, shortened: (§1)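 Cloned human receptor membranes were coated onto FlashPlate wells and incubated with radioligand and compound (added from a 0.5 mM DMSO daughter plate) for 1 hour at room temperature in the dark. Scintillation counting gave percent inhibition, with DMSO defining total and reference ligand defining non-specific binding.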

Human μ-opioid (MOP) = biological target: T2, Human μ-opioid (MOP) (Homo sapiens, UniProt P35372); experiment: Radioligand binding, human μ-opioid (MOP) membranes, FlashPlate, [3H]-Naloxone; details: compound at 10 μM; human μ-opioid (MOP) membranes
T2 construct: purchased Perkin Elmer Biosignal
T2 sequence (P35372 whole entry): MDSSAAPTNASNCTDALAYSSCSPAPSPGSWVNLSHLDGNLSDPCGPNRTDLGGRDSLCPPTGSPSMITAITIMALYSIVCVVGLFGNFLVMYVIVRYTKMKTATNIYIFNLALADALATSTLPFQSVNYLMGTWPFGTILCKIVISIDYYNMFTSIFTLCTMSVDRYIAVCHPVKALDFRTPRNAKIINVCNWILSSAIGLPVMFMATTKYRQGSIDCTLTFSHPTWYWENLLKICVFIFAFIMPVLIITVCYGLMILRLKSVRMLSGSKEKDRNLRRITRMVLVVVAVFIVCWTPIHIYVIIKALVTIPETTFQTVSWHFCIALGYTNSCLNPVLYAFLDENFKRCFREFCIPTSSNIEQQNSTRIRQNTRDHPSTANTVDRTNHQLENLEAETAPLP
Procedure, shortened: as §1

Mouse urotensin (mUR2) = biological target: T3, Mouse urotensin (mUR2) (Mus musculus, UniProt Q8VIH9); experiment: Radioligand binding, mouse urotensin mUR2 membranes, FlashPlate, [125I]-Urotensin II; details: compound at 10 μM; mouse urotensin mUR2 membranes
T3 construct: purchased Perkin Elmer Biosignal
T3 sequence (Q8VIH9 1-385): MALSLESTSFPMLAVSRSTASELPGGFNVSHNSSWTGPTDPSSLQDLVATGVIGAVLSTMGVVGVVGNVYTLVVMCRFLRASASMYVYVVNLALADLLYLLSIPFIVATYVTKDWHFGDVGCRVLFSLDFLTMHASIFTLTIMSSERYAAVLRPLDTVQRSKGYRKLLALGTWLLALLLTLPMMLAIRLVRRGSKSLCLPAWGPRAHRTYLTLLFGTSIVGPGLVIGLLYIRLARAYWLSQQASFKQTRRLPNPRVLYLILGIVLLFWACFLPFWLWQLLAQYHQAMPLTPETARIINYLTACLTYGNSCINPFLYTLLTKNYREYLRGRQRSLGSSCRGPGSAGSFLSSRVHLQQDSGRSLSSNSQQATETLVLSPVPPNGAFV
Procedure, shortened: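 Cloned mouse urotensin (mUR2) receptor membranes from Perkin Elmer Biosignal were immobilized in FlashPlate microplates using a proprietary coating. Each well got 19.5 μl buffer, then 0.5 μl of DMSO, reference ligand, or compound. Adding 5 μl of [125I]-Urotensin II, diluted to 5× final concentration in binding buffer, started binding. Plates were sealed with TopSeal-A and incubated 1 hour at room temperature in the dark. Wells were counted for 30 seconds each on a TopCount after a 60-second delay, and percentage inhibition was calculated.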

Human neurokinin (NK1) = biological target: T4, Human neurokinin (NK1) (Homo sapiens, UniProt P25103); experiment: Radioligand binding, human neurokinin NK1 membranes, filtration, [125I]-Substance P; details: compound at 10 μM; human neurokinin NK1 membranes
T4 construct: purchased Perkin Elmer Biosignal
T4 sequence (P25103 whole entry): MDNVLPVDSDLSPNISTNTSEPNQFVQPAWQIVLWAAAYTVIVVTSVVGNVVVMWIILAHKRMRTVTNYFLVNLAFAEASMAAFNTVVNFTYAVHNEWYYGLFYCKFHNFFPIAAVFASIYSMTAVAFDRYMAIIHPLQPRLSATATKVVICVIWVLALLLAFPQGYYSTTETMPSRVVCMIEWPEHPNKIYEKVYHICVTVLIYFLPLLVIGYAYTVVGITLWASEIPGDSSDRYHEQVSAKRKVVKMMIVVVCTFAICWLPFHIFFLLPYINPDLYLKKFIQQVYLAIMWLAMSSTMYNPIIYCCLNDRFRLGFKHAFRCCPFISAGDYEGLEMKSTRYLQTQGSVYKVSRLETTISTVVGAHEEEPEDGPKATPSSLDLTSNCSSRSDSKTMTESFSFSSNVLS
Procedure, shortened: (§2)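 Filtration binding on cloned human receptor membranes (1 Unit/well), [125I]-Substance P for NK1 and [3H]-Diprenorphine for KOP, 1 h at room temperature. Filters PEI-presoaked, washed with cold 50 mM Tris-HCl pH 7.4, counted by scintillation; percent inhibition calculated, reference ligand defining non-specific binding.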

Human melanocortin (MC5) = biological target: T5, Human melanocortin (MC5) (Homo sapiens, UniProt P33032); experiment: Radioligand binding, human melanocortin MC5 membranes, FlashPlate, [125I]-NDP-αMSH; details: compound at 10 μM; human melanocortin MC5 membranes
T5 construct: purchased Perkin Elmer Biosignal
T5 sequence (P33032 whole entry): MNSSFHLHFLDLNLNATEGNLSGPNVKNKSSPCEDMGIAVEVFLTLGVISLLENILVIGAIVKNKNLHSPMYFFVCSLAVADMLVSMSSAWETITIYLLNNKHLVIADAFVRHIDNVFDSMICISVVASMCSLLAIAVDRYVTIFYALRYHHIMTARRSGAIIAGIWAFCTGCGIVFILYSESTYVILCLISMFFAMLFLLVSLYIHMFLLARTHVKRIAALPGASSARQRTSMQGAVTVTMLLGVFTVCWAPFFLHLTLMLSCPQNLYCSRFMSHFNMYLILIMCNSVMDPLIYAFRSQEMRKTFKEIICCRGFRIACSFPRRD
Procedure, shortened: as §1

Human Melanocortin (MC3) = biological target: T6, Human Melanocortin (MC3) (Homo sapiens, UniProt P41968); experiment: Radioligand binding, human melanocortin MC3 membranes, FlashPlate, [125I]-NDP-αMSH; details: compound at 10 μM; human melanocortin MC3 membranes
T6 construct: purchased Perkin Elmer Biosignal
T6 sequence (P41968 whole entry): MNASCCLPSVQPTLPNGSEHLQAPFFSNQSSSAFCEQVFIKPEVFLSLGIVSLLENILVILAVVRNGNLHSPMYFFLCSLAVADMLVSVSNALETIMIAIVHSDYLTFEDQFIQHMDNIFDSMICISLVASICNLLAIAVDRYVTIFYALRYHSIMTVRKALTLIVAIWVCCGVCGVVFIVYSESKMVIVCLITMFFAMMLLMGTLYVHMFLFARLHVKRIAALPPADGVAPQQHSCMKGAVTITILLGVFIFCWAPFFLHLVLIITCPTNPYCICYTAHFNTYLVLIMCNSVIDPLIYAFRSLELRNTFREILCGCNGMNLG
Procedure, shortened: as §1

Human Melanocortin (MC4) = biological target: T7, Human Melanocortin (MC4) (Homo sapiens, UniProt P32245); experiment: Radioligand binding, human melanocortin MC4 membranes, FlashPlate, [125I]-NDP-αMSH; details: compound at 10 μM; human melanocortin MC4 membranes
T7 construct: purchased Perkin Elmer Biosignal
T7 sequence (P32245 whole entry): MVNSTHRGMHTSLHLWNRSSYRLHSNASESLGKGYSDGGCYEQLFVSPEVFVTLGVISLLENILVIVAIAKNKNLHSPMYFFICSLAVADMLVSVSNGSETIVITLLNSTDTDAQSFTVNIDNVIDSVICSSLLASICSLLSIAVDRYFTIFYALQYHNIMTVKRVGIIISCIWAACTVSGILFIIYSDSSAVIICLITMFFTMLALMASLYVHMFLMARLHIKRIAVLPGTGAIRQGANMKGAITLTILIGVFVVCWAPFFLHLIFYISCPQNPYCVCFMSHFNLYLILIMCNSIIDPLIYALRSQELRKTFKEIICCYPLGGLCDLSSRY
Procedure, shortened: as §1

Human δ-opioid (DOP) = biological target: T8, Human δ-opioid (DOP) (Homo sapiens, UniProt P41143); experiment: Radioligand binding, human δ-opioid (DOP) membranes, FlashPlate, [3H]-Bremazocine; details: compound at 10 μM; human δ-opioid (DOP) membranes
T8 construct: purchased Perkin Elmer Biosignal
T8 sequence (P41143 whole entry): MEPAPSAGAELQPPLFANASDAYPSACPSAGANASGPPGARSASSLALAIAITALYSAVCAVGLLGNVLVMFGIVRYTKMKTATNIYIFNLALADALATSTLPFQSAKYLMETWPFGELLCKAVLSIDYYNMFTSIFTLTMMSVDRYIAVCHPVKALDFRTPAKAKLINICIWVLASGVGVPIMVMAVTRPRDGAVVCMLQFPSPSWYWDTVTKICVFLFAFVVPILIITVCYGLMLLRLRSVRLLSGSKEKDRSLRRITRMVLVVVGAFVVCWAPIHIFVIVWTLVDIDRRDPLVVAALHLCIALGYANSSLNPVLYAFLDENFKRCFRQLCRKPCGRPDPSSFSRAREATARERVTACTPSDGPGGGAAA
Procedure, shortened: as §1

Human κ-Opioid (KOP) = biological target: T9, Human κ-Opioid (KOP) (Homo sapiens, UniProt P41145); experiment: Radioligand binding, human κ-opioid (KOP) membranes, filtration, [3H]-Diprenorphine; details: compound at 10 μM; human κ-opioid (KOP) membranes
T9 construct: purchased Perkin Elmer Biosignal
T9 sequence (P41145 whole entry): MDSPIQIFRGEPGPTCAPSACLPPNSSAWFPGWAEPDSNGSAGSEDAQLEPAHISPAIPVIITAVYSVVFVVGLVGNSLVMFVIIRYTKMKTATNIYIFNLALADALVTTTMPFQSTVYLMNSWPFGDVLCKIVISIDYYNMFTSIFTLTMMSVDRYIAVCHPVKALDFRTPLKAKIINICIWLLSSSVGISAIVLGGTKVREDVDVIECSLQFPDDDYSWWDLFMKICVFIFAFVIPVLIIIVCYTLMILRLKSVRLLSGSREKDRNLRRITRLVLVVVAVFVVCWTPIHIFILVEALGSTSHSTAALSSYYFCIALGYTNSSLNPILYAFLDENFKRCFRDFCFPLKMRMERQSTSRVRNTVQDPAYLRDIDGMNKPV
Procedure, shortened: as §2

Human opioid (ORL1) = biological target: T10, Human opioid (ORL1) (Homo sapiens, UniProt P41146); experiment: Radioligand binding, human opioid ORL1 membranes, FlashPlate, [125I]-Nociceptin; details: compound at 10 μM; human ORL1 membranes
T10 construct: purchased Perkin Elmer Biosignal
T10 sequence (P41146 whole entry): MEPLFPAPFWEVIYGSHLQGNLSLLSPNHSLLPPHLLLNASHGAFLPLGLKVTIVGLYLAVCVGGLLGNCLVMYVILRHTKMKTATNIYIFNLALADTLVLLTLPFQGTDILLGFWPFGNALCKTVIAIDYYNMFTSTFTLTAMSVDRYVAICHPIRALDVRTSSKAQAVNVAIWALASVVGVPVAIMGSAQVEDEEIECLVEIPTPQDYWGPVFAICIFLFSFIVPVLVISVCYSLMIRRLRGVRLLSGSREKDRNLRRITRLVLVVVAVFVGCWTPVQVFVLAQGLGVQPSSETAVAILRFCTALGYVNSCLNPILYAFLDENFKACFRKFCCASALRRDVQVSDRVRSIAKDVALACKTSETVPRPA
Procedure, shortened: as §1

[2] = biological target: T11, Human neuropeptide Y (NPY-Y1) (Homo sapiens, UniProt P25929); experiment: Radioligand binding, human neuropeptide Y NPY-Y1 membranes, FlashPlate, [125I]-PYY; details: compound at 10 μM; human NPY-Y1 membranes
T11 construct: purchased Perkin Elmer Biosignal
T11 sequence (P25929 1-384): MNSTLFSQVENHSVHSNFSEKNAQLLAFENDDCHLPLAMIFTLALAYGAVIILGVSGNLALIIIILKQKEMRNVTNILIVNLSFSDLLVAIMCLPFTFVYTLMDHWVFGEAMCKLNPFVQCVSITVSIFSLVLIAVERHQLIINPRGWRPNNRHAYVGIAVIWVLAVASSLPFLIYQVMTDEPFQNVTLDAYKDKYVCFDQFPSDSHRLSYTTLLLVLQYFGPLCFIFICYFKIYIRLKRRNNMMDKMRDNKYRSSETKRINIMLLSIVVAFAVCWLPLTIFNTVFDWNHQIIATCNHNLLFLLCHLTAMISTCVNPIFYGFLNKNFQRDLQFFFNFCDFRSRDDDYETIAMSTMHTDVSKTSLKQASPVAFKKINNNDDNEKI
Procedure, shortened: as §1

T1 sequence (Q99705 whole entry): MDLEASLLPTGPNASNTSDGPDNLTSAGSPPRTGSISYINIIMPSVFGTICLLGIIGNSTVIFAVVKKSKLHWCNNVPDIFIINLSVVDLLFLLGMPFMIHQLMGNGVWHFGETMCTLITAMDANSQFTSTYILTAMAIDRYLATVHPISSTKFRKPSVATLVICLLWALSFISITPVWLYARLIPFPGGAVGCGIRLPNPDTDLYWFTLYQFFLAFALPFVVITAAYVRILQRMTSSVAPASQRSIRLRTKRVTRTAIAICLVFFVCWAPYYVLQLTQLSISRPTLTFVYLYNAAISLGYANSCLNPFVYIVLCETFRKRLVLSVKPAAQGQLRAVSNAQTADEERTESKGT

| Compound | A6 radioligand binding inhibition [1] | A7 radioligand binding inhibition (Human μ-opioid (MOP)) | A11 radioligand binding inhibition (Mouse urotensin (mUR2)) | A8 radioligand binding inhibition (Human neurokinin (NK1)) | A5 radioligand binding inhibition (Human melanocortin (MC5)) | A3 radioligand binding inhibition (Human Melanocortin (MC3)) | A4 radioligand binding inhibition (Human Melanocortin (MC4)) | A1 radioligand binding inhibition (Human δ-opioid (DOP)) | A2 radioligand binding inhibition (Human κ-Opioid (KOP)) | A10 radioligand binding inhibition (Human opioid (ORL1)) | A9 radioligand binding inhibition [2] |
| --- | --- | --- | --- | --- | --- | --- | --- | --- | --- | --- | --- |
| COC[C@H]1OC(OCc2ccc(Cl)cc2)[C@H](NC(=O)CCCNC(=N)N)[C@@H](OCc2ccc3ccccc3c2)[C@@H]1O (stereo partly drawn) [compound 33] | + (“+” indicates greater than 50% inhibition at 10 μM) | − (“−” indicates less than 50% inhibition at 10 μM) | − (“−” indicates less than 50% inhibition at 10 μM) | + (“+” indicates greater than 50% inhibition at 10 μM) | − (“−” indicates less than 50% inhibition at 10 μM) | − (“−” indicates less than 50% inhibition at 10 μM) | − (“−” indicates less than 50% inhibition at 10 μM) | − (“−” indicates less than 50% inhibition at 10 μM) | − (“−” indicates less than 50% inhibition at 10 μM) | − (“−” indicates less than 50% inhibition at 10 μM) | − (“−” indicates less than 50% inhibition at 10 μM) |
| COC[C@H]1OC(OCc2ccc(Cl)cc2)[C@H](NC(=O)CCNC(=N)N)[C@@H](OCc2ccccc2)[C@@H]1O (stereo partly drawn) [compound 34] | − (“−” indicates less than 50% inhibition at 10 μM) | − (“−” indicates less than 50% inhibition at 10 μM) | − (“−” indicates less than 50% inhibition at 10 μM) | + (“+” indicates greater than 50% inhibition at 10 μM) | − (“−” indicates less than 50% inhibition at 10 μM) | − (“−” indicates less than 50% inhibition at 10 μM) | − (“−” indicates less than 50% inhibition at 10 μM) | − (“−” indicates less than 50% inhibition at 10 μM) | − (“−” indicates less than 50% inhibition at 10 μM) | − (“−” indicates less than 50% inhibition at 10 μM) | − (“−” indicates less than 50% inhibition at 10 μM) |
| COC[C@H]1OC(OCc2ccc(Cl)cc2)[C@H](NC(=O)CCCN)[C@@H](OCc2ccccc2)[C@@H]1O (stereo partly drawn) [compound 35] | − (“−” indicates less than 50% inhibition at 10 μM) | − (“−” indicates less than 50% inhibition at 10 μM) | − (“−” indicates less than 50% inhibition at 10 μM) | + (“+” indicates greater than 50% inhibition at 10 μM) | − (“−” indicates less than 50% inhibition at 10 μM) | − (“−” indicates less than 50% inhibition at 10 μM) | − (“−” indicates less than 50% inhibition at 10 μM) | − (“−” indicates less than 50% inhibition at 10 μM) | − (“−” indicates less than 50% inhibition at 10 μM) | − (“−” indicates less than 50% inhibition at 10 μM) | − (“−” indicates less than 50% inhibition at 10 μM) |
| COC[C@H]1OC(OCc2ccc(Cl)cc2)[C@H](NC(=O)CCCNC(=N)N)[C@@H](OCc2ccccc2)[C@@H]1O (stereo partly drawn) [compound 36] | − (“−” indicates less than 50% inhibition at 10 μM) | + (“+” indicates greater than 50% inhibition at 10 μM) | − (“−” indicates less than 50% inhibition at 10 μM) | + (“+” indicates greater than 50% inhibition at 10 μM) | − (“−” indicates less than 50% inhibition at 10 μM) | − (“−” indicates less than 50% inhibition at 10 μM) | − (“−” indicates less than 50% inhibition at 10 μM) | − (“−” indicates less than 50% inhibition at 10 μM) | − (“−” indicates less than 50% inhibition at 10 μM) | − (“−” indicates less than 50% inhibition at 10 μM) | − (“−” indicates less than 50% inhibition at 10 μM) |
| COC[C@H]1OC(OCc2ccc(Cl)cc2)[C@H](NC(=O)CNC(=N)N)[C@@H](OCc2ccc(Cl)cc2)[C@@H]1O (stereo partly drawn) [compound 37] | + (“+” indicates greater than 50% inhibition at 10 μM) | − (“−” indicates less than 50% inhibition at 10 μM) | − (“−” indicates less than 50% inhibition at 10 μM) | − (“−” indicates less than 50% inhibition at 10 μM) | + (“+” indicates greater than 50% inhibition at 10 μM) | + (“+” indicates greater than 50% inhibition at 10 μM) | + (“+” indicates greater than 50% inhibition at 10 μM) | − (“−” indicates less than 50% inhibition at 10 μM) | − (“−” indicates less than 50% inhibition at 10 μM) | − (“−” indicates less than 50% inhibition at 10 μM) | − (“−” indicates less than 50% inhibition at 10 μM) |
| COC[C@H]1OC(OCc2ccc(Cl)cc2)[C@H](NC(=O)CCNC(=N)N)[C@@H](OCc2ccc(Cl)cc2)[C@@H]1O (stereo partly drawn) [compound 38] | + (“+” indicates greater than 50% inhibition at 10 μM) | − (“−” indicates less than 50% inhibition at 10 μM) | − (“−” indicates less than 50% inhibition at 10 μM) | + (“+” indicates greater than 50% inhibition at 10 μM) | + (“+” indicates greater than 50% inhibition at 10 μM) | − (“−” indicates less than 50% inhibition at 10 μM) | − (“−” indicates less than 50% inhibition at 10 μM) | − (“−” indicates less than 50% inhibition at 10 μM) | − (“−” indicates less than 50% inhibition at 10 μM) | − (“−” indicates less than 50% inhibition at 10 μM) | − (“−” indicates less than 50% inhibition at 10 μM) |
